Results taken from paper PMC9229991, “Development of Reduced Peptide Bond Pseudopeptide Michael Acceptors for the Treatment of Human African Trypanosomiasis” (Molecules, 2022).
Like-named read-outs stand apart in the source and are kept apart here.

Tests used:
rhodesain [1] = biological target: T1, rhodesain (Trypanosoma brucei rhodesiense, UniProt Q95PM0); test: Rhodesain fluorogenic enzyme assay (Cbz-Phe-Arg-AMC substrate); assay type: biochemical, T. b. rhodesiense; details: for Rhodesain kinac: pH 5.5, room temperature; for Rhodesain k2nd: k2nd = kinact/Ki; for inhibition at 100 µM: preliminary screening at 100 µM, read-out: Rhodesain % of inhibition at screening concentration
T1 construct: made in house
Description: All molecules were tested towards rhodesain utilizing fluorogenic assays in the presence of Cbz-Phe-Arg-AMC as substrate. […] Firstly, all the molecules were preliminarily screened at 100 µM (Figure 1A), and DMSO and E-64 were employed as the negative and positive control, respectively. Since SPR10–SPR19 passed the initial screening (% of inhibition > 80%), they were properly diluted, in accordance with what is reported in the literature.
Rhodesain was recombinantly expressed as previously described and Cbz-Phe-Arg-AMC (10 µM) was used as the fluorogenic substrate. The rhodesain-mediated hydrolysis released the fluorescent portion AMC, and fluorescence was measured at room temperature over a period of 30 min, using an Infinite 200 PRO microplate reader, and excitation (380 nm) and emission ([…]) filters were employed. The assay buffer was composed of 50 mM sodium acetate, 5 mM EDTA, 200 mM NaCl, and 0.005% Brij 35 with a pH equal to 5.5. Similarly, the enzyme buffer contained the same chemicals as the assay, with the exception of Brij, which was replaced by 1,4-dithiothreitol (DTT). All the SPR derivatives were solubilized in DMSO, which was also used as the negative control. E-64 protease inhibitor [76] was employed as the positive control. […] Each independent assay was performed twice and in duplicate, using 96 well-plates in a total volume of […]. The first order inactivation rate constants (kobs) were determined by means of nonlinear regression analysis of the progress curves (fluorescence (F) vs. time), and the equation F = A (1 − exp(−kobst)) + B was used. The obtained kobs values were fitted vs. the concentrations of tested inhibitors, and the equation kobs = kinact [I]/(Kiapp + [I]) provided the Kiapp and kinact values. Ki values were obtained using the equation Ki = Kiapp/(1 + [S]/Km), where Km is equal to 0.9 µM [77]. Grafit software was used for the nonlinear regression analysis to calculate kinact and Ki. The second-order rate constants k2nd were directly determined as k2nd = kinact/Ki.

T. b. brucei [2] = details: 24 h; cited from earlier work
rhodesain [3] = biological target: T1, rhodesain; parameters: method as in PMID 31714776; details: lead compound; read-out: Rhodesain (TbrCatL) Ki; cited from earlier work
[4] = biological target: T2, human Cathepsin L (hCatL) (Homo sapiens, UniProt P07711); parameters: method as in PMID 31714776; details: unit printed in cell (PS1, Table 1); cited from earlier work
[5] = biological target: T2, human Cathepsin L (hCatL); test: hCatL fluorogenic enzyme assay (selectivity); assay type: biochemical; details: for inhibition at 100 µM: screening concentration 100 µM; for Ki: Km 6.5 µM
Description: In order to evaluate the selectivity towards the protozoan cysteine protease, all the new Michael acceptors were assayed against human Cathepsin L (hCatL), which represents the homologous protease of rhodesain in humans.
Similarly to rhodesain, the activity towards hCatL was evaluated as reported in the literature. The biological evaluation towards hCatL was performed using the same buffers, reader, fluorogenic substrate, and positive and negative controls as described above for rhodesain, and the preliminary screening was performed at 100 µM. In this case too, each independent assay was performed twice and in duplicate. Differently from rhodesain, Km is equal to 6.5 µM [77].

HEK293 cells = test: Cytotoxicity assay, resazurin; assay type: cell-based; details: 24 h
Description: HEK293 cells were cultured in high-glucose DMEM medium with L-glutamine, supplemented with 10% FCS, 20 U/mL penicillin, and 20 µg/mL streptomycin, at 37 °C and 5% CO2. For the cytotoxicity assay, the cells were seeded in 400 µL at 60,000 cells per well of poly-lysine-coated 48-well plates, and incubated for 24 h at 37 °C. Compound stocks were diluted in DMSO in nine consecutive 1:2 steps, resulting in a set of ten dilutions with concentrations from 7 mM to […]. From each dilution, 4 µL were added to the cells in the 48-well plates, in two separate triplicates. Addition of only DMSO served as control. The plates containing cells plus compound dilutions were incubated for 21 h at 37 °C. Subsequently, the medium in each well was exchanged to a medium with resazurin (15 µg/mL), resulting in a final concentration of […]. The plates were incubated for 3 h at 37 °C. Finally, 100 µL of the solution from each well of the 48-well plate was transferred into a 96-well plate, and fluorescence was measured (excitation: 540-14, emission: 590-20) using a CLARIOstar Plus plate reader (BMG Labtech).

T. b. brucei [6] = test: Antitrypanosomal activity, ATPlite assay; assay type: cell-based, Trypanosoma brucei brucei; details: 24 h
Description: The parasites used in this study were culture-adapted Trypanosoma brucei brucei of the cell line 449, descendants of the Lister strain 427 [79, 80]. The cells were grown in HMI-9 medium supplemented with 10% FCS, 50 U/mL penicillin, 50 µg/mL streptomycin, and 0.2 µg/mL phleomycin, at 37 °C and 5% CO2. EC50 values for the antitrypanosomal activity were determined using the ATPlite assay as previously described. Briefly, 10 mM compound stocks in DMSO were diluted to 333 µM in HMI-9 medium. This mixture was used to prepare nine further consecutive 1:2 dilutions in HMI-9 medium. Subsequently, 10 µL of diluted compound mixtures were added to 90 µL of media containing 2500 cell/mL in wells of a 96-well plate, in two separate triplicates. The highest DMSO concentration reached in compound plus cells mixture was 0.3%, and parasites treated with DMSO only were used as control. The cells were incubated for 24 h at 37 °C. Subsequently, 50 µL ATPlite 1 step solution (PerkinElmer) was added to each well and luminescence was measured using a CLARIOstar Plus plate reader (BMG Labtech).

L-6 rat myoblast cells = tested on: L-6 rat myoblast cells; parameters: method as in PMID 21200426; details: cytotoxicity; read-out: IC50 towards L-6 rat myoblast cells; cited from earlier work
[7] = Cbz-Phe-Arg-AMC 10 µM, pH 5.5, Km 0.9 µM, read-out: Rhodesain Ki

T2 sequence (P07711 114-333): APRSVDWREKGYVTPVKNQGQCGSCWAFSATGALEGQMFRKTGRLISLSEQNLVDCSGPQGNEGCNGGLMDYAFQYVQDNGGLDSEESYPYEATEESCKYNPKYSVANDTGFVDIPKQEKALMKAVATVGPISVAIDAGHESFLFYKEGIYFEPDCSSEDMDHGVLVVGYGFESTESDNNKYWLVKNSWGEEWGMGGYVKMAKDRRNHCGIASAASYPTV
T1 sequence (Q95PM0 entry or part of it): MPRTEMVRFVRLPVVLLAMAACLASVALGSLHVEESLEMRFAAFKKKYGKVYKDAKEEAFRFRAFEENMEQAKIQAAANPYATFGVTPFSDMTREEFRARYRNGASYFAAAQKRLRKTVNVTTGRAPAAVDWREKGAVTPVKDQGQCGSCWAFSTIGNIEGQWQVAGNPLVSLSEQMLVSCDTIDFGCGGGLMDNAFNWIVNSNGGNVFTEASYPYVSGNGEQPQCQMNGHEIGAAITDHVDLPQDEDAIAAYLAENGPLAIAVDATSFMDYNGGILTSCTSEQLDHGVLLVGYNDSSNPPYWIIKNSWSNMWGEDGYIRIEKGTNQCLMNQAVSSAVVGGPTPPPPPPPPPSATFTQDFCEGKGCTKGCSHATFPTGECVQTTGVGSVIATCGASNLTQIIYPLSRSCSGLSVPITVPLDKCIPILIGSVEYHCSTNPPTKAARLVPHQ

## CC(C)C[C@H](NC(=O)[C@H]1O[C@@H]1C(=O)O)C(=O)NCCCCN=C(N)N [E-64, reference compound]
Rhodesain [1]; [7]
  Ki: 33 ± 7 nM
Rhodesain [1]; Cbz-Phe-Arg-AMC 10 µM
  Rhodesain kinac: 0.0085 ± 0.0008 min⁻¹
Rhodesain [1]
  Rhodesain k2nd: 263000 ± 30000 M⁻¹ min⁻¹

## CSc1ccc(OCc2ncc([N+](=O)[O-])n2C)cc1 [Fexinidazole]
T. b. brucei [2]
  EC50: 2380 ± 880 nM

## CC(=O)C=CC(CCc1ccccc1)NC(=O)C(Cc1ccccc1)NC(=O)c1ccc(F)cc1 (stereo not shown) [PS-1]
T. b. brucei [2]
  EC50: 5100 ± 1000 nM
Rhodesain [3]
  Ki: 0.0011 nM
Rhodesain [1]; Cbz-Phe-Arg-AMC 10 µM
  Rhodesain kinac: 0.00094 ± 0.00007 min⁻¹
Rhodesain [1]
  Rhodesain k2nd: 8.384e+08 ± 1.066e+08 M⁻¹ min⁻¹
[4]
  Ki: 1.9 ± 0.4 nM

## COC(=O)/C=C/[C@H](CCc1ccccc1)NC(=O)[C@H](Cc1ccccc1)NCc1ccccc1 [SPR10, Methyl (S,E)-4-((S)-2-(benzylamino)-3-phenylpropanamido)-6-phenylhex-2-enoate]
[5]
  inhibition at 100 µM: 16%
Rhodesain [1]; [7]
  Ki: 5660 ± 300 nM
Rhodesain [1]; Cbz-Phe-Arg-AMC 10 µM
  Rhodesain kinac: 0.0096 ± 0.0001 min⁻¹
Rhodesain [1]
  Rhodesain k2nd: 1703 ± 68 M⁻¹ min⁻¹
  inhibition at 100 µM: > 80%

## COC(=O)/C=C/[C@H](CCc1ccccc1)NC(=O)[C@H](Cc1ccccc1)NCc1ccc([N+](=O)[O-])cc1 [SPR11, Methyl (S,E)-4-((S)-2-((4-nitrobenzyl)amino)-3-phenylpropanamido)-6-phenylhex-2-enoate]
[5]
  Ki: 36900 ± 2200 nM
Rhodesain [1]; [7]
  Ki: 430 ± 60 nM
Rhodesain [1]; Cbz-Phe-Arg-AMC 10 µM
  Rhodesain kinac: 0.0023 ± 0.0001 min⁻¹
Rhodesain [1]
  inhibition at 100 µM: > 80%

## COC(=O)/C=C/[C@H](CCc1ccccc1)NC(=O)[C@H](Cc1ccccc1)NCc1ccc(OC)cc1 [SPR12, Methyl (S,E)-4-((S)-2-((4-methoxybenzyl)amino)-3-phenylpropanamido)-6-phenylhex-2-enoate]
[5]
  Ki: 18500 ± 3900 nM
Rhodesain [1]; [7]
  Ki: 4790 ± 1410 nM
Rhodesain [1]; Cbz-Phe-Arg-AMC 10 µM
  Rhodesain kinac: 0.0062 ± 0.0014 min⁻¹
Rhodesain [1]
  Rhodesain k2nd: 1314 ± 91 M⁻¹ min⁻¹
  inhibition at 100 µM: > 80%

## COC(=O)/C=C/[C@H](CCc1ccccc1)NC(=O)[C@H](Cc1ccccc1)NCc1ccccc1F [SPR13, Methyl (S,E)-4-((S)-2-((2-fluorobenzyl)amino)-3-phenylpropanamido)-6-phenylhex-2-enoate]
[5]
  inhibition at 100 µM: 10%
Rhodesain [1]; [7]
  Ki: 1580 ± 620 nM
Rhodesain [1]; Cbz-Phe-Arg-AMC 10 µM
  Rhodesain kinac: 0.0038 ± 0.0003 min⁻¹
Rhodesain [1]
  Rhodesain k2nd: 2753 ± 885 M⁻¹ min⁻¹
  inhibition at 100 µM: > 80%

## COC(=O)/C=C/[C@H](CCc1ccccc1)NC(=O)[C@H](Cc1ccccc1)NCc1cccc(F)c1 [SPR14, Methyl (S,E)-4-((S)-2-((3-fluorobenzyl)amino)-3-phenylpropanamido)-6-phenylhex-2-enoate]
[5]
  inhibition at 100 µM: 35%
Rhodesain [1]; [7]
  Ki: 1260 ± 80 nM
Rhodesain [1]; Cbz-Phe-Arg-AMC 10 µM
  Rhodesain kinac: 0.0043 ± 0.0007 min⁻¹
Rhodesain [1]
  Rhodesain k2nd: 3398 ± 328 M⁻¹ min⁻¹
  inhibition at 100 µM: > 80%

## COC(=O)/C=C/[C@H](CCc1ccccc1)NC(=O)[C@H](Cc1ccccc1)NCc1ccc(F)cc1 [SPR15, Methyl (S,E)-4-((S)-2-((4-fluorobenzyl)amino)-3-phenylpropanamido)-6-phenylhex-2-enoate]
[5]
  inhibition at 100 µM: 10%
Rhodesain [1]; [7]
  Ki: 2640 ± 130 nM
Rhodesain [1]; Cbz-Phe-Arg-AMC 10 µM
  Rhodesain kinac: 0.0041 ± 0.0002 min⁻¹
Rhodesain [1]
  Rhodesain k2nd: 1552 ± 19 M⁻¹ min⁻¹
  inhibition at 100 µM: > 80%

## COC(=O)/C=C/[C@H](CCc1ccccc1)NC(=O)[C@H](Cc1ccccc1)NCc1ccc(F)cc1F [SPR16, Methyl (S,E)-4-((S)-2-((2,4-difluorobenzyl)amino)-3-phenylpropanamido)-6-phenylhex-2-enoate]
[5]
  inhibition at 100 µM: 38%
HEK293 cells
  Cytotoxicity towards HEK293 cells: concentration up to which no relevant cytotoxicity was observed: > 70 µM
Rhodesain [1]; [7]
  Ki: 220 ± 60 nM
Rhodesain [1]; Cbz-Phe-Arg-AMC 10 µM
  Rhodesain kinac: 0.0014 ± 0.0001 min⁻¹
Rhodesain [1]
  inhibition at 100 µM: > 80%
T. b. brucei [6]; Trypanosoma brucei
  EC50: 8700 ± 3000 nM

## COC(=O)/C=C/[C@H](CCc1ccccc1)NC(=O)[C@H](Cc1ccccc1)NCc1cc(F)ccc1F [SPR17, Methyl (S,E)-4-((S)-2-((2,5-difluorobenzyl)amino)-3-phenylpropanamido)-6-phenylhex-2-enoate]
[5]
  inhibition at 100 µM: 12%
Rhodesain [1]; [7]
  Ki: 460 ± 160 nM
Rhodesain [1]; Cbz-Phe-Arg-AMC 10 µM
  Rhodesain kinac: 0.0024 ± 0.0006 min⁻¹
Rhodesain [1]
  inhibition at 100 µM: > 80%

## COC(=O)/C=C/[C@H](CCc1ccccc1)NC(=O)[C@H](Cc1ccccc1)NCc1c(F)cccc1F [SPR18, Methyl (S,E)-4-((S)-2-((2,6-difluorobenzyl)amino)-3-phenylpropanamido)-6-phenylhex-2-enoate]
[5]
  inhibition at 100 µM: 26%
HEK293 cells
  Cytotoxicity towards HEK293 cells: concentration up to which no relevant cytotoxicity was observed: > 70 µM
Rhodesain [1]; [7]
  Ki: 210 ± 10 nM
Rhodesain [1]; Cbz-Phe-Arg-AMC 10 µM
  Rhodesain kinac: 0.0012 ± 0.0001 min⁻¹
Rhodesain [1]
  inhibition at 100 µM: > 80%
T. b. brucei [6]; Trypanosoma brucei
  EC50: 7000 ± 1000 nM

## COC(=O)C=CC(CCc1ccccc1)NC(=O)C(Cc1ccccc1)NCc1ccc(C(F)(F)F)cc1 (stereo not shown) [SPR19]
[5]
  inhibition at 100 µM: 45%
Rhodesain [1]
  Ki: 410 ± 70 nM
  inhibition at 100 µM: > 80%
Rhodesain [1]; Cbz-Phe-Arg-AMC 10 µM
  Rhodesain kinac: 0.0023 ± 0.0002 min⁻¹

## COC(=O)/C=C/[C@H](CCc1ccccc1)NC(=O)[C@H](Cc1ccccc1)NC(=O)c1ccc(F)cc1 [SPR34, (S,E)-methyl 4-((S)-2-(4-fluorobenzamido)-3-phenylpropanamido)-6-phenylhex-2-enoate]
[5]
  Selectivity Index (SI) (Ki hCatL/rhodesain): 603
  Ki: 3500 ± 1100 nM
HEK293 cells
  Cytotoxicity towards HEK293 cells: concentration up to which no relevant cytotoxicity was observed: > 70 µM
Rhodesain [1]; [7]
  Ki: 5.8 ± 0.4 nM
Rhodesain [1]; Cbz-Phe-Arg-AMC 10 µM
  Rhodesain kinac: 0.0050 ± 0.0003 min⁻¹
Rhodesain [1]
  Rhodesain k2nd: 870,606 ± 1178 M^−1 min^−1
T. b. brucei [6]
  EC50: 15800 ± 2000 nM
T. b. brucei [6]; Trypanosoma brucei
  EC50: 16000 ± 2100 nM

## Nc1nc(N)nc(Nc2ccc([As]3SCC(CO)S3)cc2)n1 (stereo not shown) [melarsoprol]
L-6 rat myoblast cells
  IC50: 3300 nM
